# Measured values: patent publication US9936701B2, “Herbicidal compounds” (Syngenta Participations AG, priority 2013, dated 2018)
# System: a variety of test species
# Assay: Post-emergence herbicidal activity (glasshouse, sprayed after 8 days cultivation, evaluated after 13 days)
# Type: in vivo
# Parameters: key: 5=total damage to plant; 0=no damage to plant
# Details: Abutilon theophrasti, rate 1000 g/Ha, scale 0-5
# Procedure, shortened: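 Pot-grown seedlings sprayed 8 days after sowing with active ingredient in acetone/water (50:50) plus 0.5% Tween 20. Glasshouse at 24/16 °C day/night, 14 h light, 65% humidity, watered twice daily. Damage scored after 13 days on a 0–5 scale (5 = total damage, 0 = none).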
row,Structure (SMILES),"ABUTH (Abutilon theophrasti) damage score, application post-emergence"
1,"COC1=C(Cl)C(OC(C)=O)N(c2cc(C(C)(C)C)on2)C1=O (centres unmarked) [E2, [1-(5-tert-butylisoxazol-3-yl)-3-chloro-4-methoxy-5-oxo-2H-pyrrol-2-yl]acetate]",5
2,COC1=C(Cl)CN(c2cc(C(C)(C)C)on2)C1=O [E3],1
3,COC1=C(C)C(=O)N(c2noc(C(C)C)c2C#N)C1O (centres unmarked) [G4],5
4,CCC(C)(C)c1onc(N2C(=O)C(C)=C(OC)C2O)c1C#N (centres unmarked) [G5],5
5,COC1=C(C)C(=O)N(c2cc(C(C)(C)C#N)on2)C1O (centres unmarked) [G6],5

# Same assay, conditions: Alopecurus myosuroides, rate 1000 g/Ha, scale 0-5
row,Structure (SMILES),"ALOMY (Alopecurus myosuroides) damage score, application post-emergence"
1,"COC1=C(Cl)C(OC(C)=O)N(c2cc(C(C)(C)C)on2)C1=O (centres unmarked) [E2, [1-(5-tert-butylisoxazol-3-yl)-3-chloro-4-methoxy-5-oxo-2H-pyrrol-2-yl]acetate]",3
2,COC1=C(Cl)CN(c2cc(C(C)(C)C)on2)C1=O [E3],0
3,COC1=C(C)C(=O)N(c2noc(C(C)C)c2C#N)C1O (centres unmarked) [G4],5
4,CCC(C)(C)c1onc(N2C(=O)C(C)=C(OC)C2O)c1C#N (centres unmarked) [G5],5
5,COC1=C(C)C(=O)N(c2cc(C(C)(C)C#N)on2)C1O (centres unmarked) [G6],5

# Same assay, conditions: Amaranthus retroflexus, rate 1000 g/Ha, scale 0-5
row,Structure (SMILES),"AMARE (Amaranthus retroflexus) damage score, application post-emergence"
1,"COC1=C(Cl)C(OC(C)=O)N(c2cc(C(C)(C)C)on2)C1=O (centres unmarked) [E2, [1-(5-tert-butylisoxazol-3-yl)-3-chloro-4-methoxy-5-oxo-2H-pyrrol-2-yl]acetate]",5
2,COC1=C(Cl)CN(c2cc(C(C)(C)C)on2)C1=O [E3],2
3,COC1=C(C)C(=O)N(c2noc(C(C)C)c2C#N)C1O (centres unmarked) [G4],5
4,CCC(C)(C)c1onc(N2C(=O)C(C)=C(OC)C2O)c1C#N (centres unmarked) [G5],5
5,COC1=C(C)C(=O)N(c2cc(C(C)(C)C#N)on2)C1O (centres unmarked) [G6],5

# Same assay, conditions: Echinochloa crus-galli, rate 1000 g/Ha, scale 0-5
row,Structure (SMILES),"ECHCG (Echinochloa crus-galli) damage score, application post-emergence"
1,"COC1=C(Cl)C(OC(C)=O)N(c2cc(C(C)(C)C)on2)C1=O (centres unmarked) [E2, [1-(5-tert-butylisoxazol-3-yl)-3-chloro-4-methoxy-5-oxo-2H-pyrrol-2-yl]acetate]",5
2,COC1=C(Cl)CN(c2cc(C(C)(C)C)on2)C1=O [E3],2
3,COC1=C(C)C(=O)N(c2noc(C(C)C)c2C#N)C1O (centres unmarked) [G4],5
4,CCC(C)(C)c1onc(N2C(=O)C(C)=C(OC)C2O)c1C#N (centres unmarked) [G5],5
5,COC1=C(C)C(=O)N(c2cc(C(C)(C)C#N)on2)C1O (centres unmarked) [G6],5

# Same assay, conditions: Setaria faberi, rate 1000 g/Ha, scale 0-5
row,Structure (SMILES),"SETFA (Setaria faberi) damage score, application post-emergence"
1,"COC1=C(Cl)C(OC(C)=O)N(c2cc(C(C)(C)C)on2)C1=O (centres unmarked) [E2, [1-(5-tert-butylisoxazol-3-yl)-3-chloro-4-methoxy-5-oxo-2H-pyrrol-2-yl]acetate]",5
2,COC1=C(Cl)CN(c2cc(C(C)(C)C)on2)C1=O [E3],4
3,COC1=C(C)C(=O)N(c2noc(C(C)C)c2C#N)C1O (centres unmarked) [G4],5
4,CCC(C)(C)c1onc(N2C(=O)C(C)=C(OC)C2O)c1C#N (centres unmarked) [G5],5
5,COC1=C(C)C(=O)N(c2cc(C(C)(C)C#N)on2)C1O (centres unmarked) [G6],5

# Same assay, conditions: Zea mays, rate 1000 g/Ha, scale 0-5
row,Structure (SMILES),"ZEAMX (Zea mays) damage score, application post-emergence"
1,"COC1=C(Cl)C(OC(C)=O)N(c2cc(C(C)(C)C)on2)C1=O (centres unmarked) [E2, [1-(5-tert-butylisoxazol-3-yl)-3-chloro-4-methoxy-5-oxo-2H-pyrrol-2-yl]acetate]",0
2,COC1=C(Cl)CN(c2cc(C(C)(C)C)on2)C1=O [E3],0
3,COC1=C(C)C(=O)N(c2noc(C(C)C)c2C#N)C1O (centres unmarked) [G4],4
4,CCC(C)(C)c1onc(N2C(=O)C(C)=C(OC)C2O)c1C#N (centres unmarked) [G5],3
5,COC1=C(C)C(=O)N(c2cc(C(C)(C)C#N)on2)C1O (centres unmarked) [G6],5

# System: a variety of test species
# Assay: Pre-emergence herbicidal activity (glasshouse, sprayed one day after sowing, evaluated after 13 days)
# Type: in vivo
# Parameters: key: 5=total damage to plant; 0=no damage to plant
# Details: ABUTH, application pre-emergence, rate 1000 g/Ha, scale 0-5
# Procedure, shortened: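 Damage rated 13 days post-treatment on a 0-5 scale, 5 meaning total plant damage. Pots were sprayed pre-emergence, one day after sowing, with an acetone/water-derived aqueous spray containing 0.5% Tween 20. Plants grew under 14 h light, 65% humidity, 24/16 °C, watered twice daily.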
row,Structure (SMILES),"Pre-emergence herbicidal damage score, ABUTH"
1,"COC1=C(Cl)C(OC(C)=O)N(c2cc(C(C)(C)C)on2)C1=O (centres unmarked) [E2, [1-(5-tert-butylisoxazol-3-yl)-3-chloro-4-methoxy-5-oxo-2H-pyrrol-2-yl]acetate]",5
2,COC1=C(Cl)CN(c2cc(C(C)(C)C)on2)C1=O [E3],2
3,COC1=C(C)C(=O)N(c2noc(C(C)C)c2C#N)C1O (centres unmarked) [G4],4
4,CCC(C)(C)c1onc(N2C(=O)C(C)=C(OC)C2O)c1C#N (centres unmarked) [G5],5
5,COC1=C(C)C(=O)N(c2cc(C(C)(C)C#N)on2)C1O (centres unmarked) [G6],5

# Same assay, conditions: ALOMY, application pre-emergence, rate 1000 g/Ha, scale 0-5
row,Structure (SMILES),"Pre-emergence herbicidal damage score, ALOMY"
1,"COC1=C(Cl)C(OC(C)=O)N(c2cc(C(C)(C)C)on2)C1=O (centres unmarked) [E2, [1-(5-tert-butylisoxazol-3-yl)-3-chloro-4-methoxy-5-oxo-2H-pyrrol-2-yl]acetate]",3
2,COC1=C(Cl)CN(c2cc(C(C)(C)C)on2)C1=O [E3],1
3,COC1=C(C)C(=O)N(c2noc(C(C)C)c2C#N)C1O (centres unmarked) [G4],3
4,CCC(C)(C)c1onc(N2C(=O)C(C)=C(OC)C2O)c1C#N (centres unmarked) [G5],3
5,COC1=C(C)C(=O)N(c2cc(C(C)(C)C#N)on2)C1O (centres unmarked) [G6],4

# Same assay, conditions: AMARE, application pre-emergence, rate 1000 g/Ha, scale 0-5
row,Structure (SMILES),"Pre-emergence herbicidal damage score, AMARE"
1,"COC1=C(Cl)C(OC(C)=O)N(c2cc(C(C)(C)C)on2)C1=O (centres unmarked) [E2, [1-(5-tert-butylisoxazol-3-yl)-3-chloro-4-methoxy-5-oxo-2H-pyrrol-2-yl]acetate]",5
2,COC1=C(Cl)CN(c2cc(C(C)(C)C)on2)C1=O [E3],5
3,COC1=C(C)C(=O)N(c2noc(C(C)C)c2C#N)C1O (centres unmarked) [G4],5
4,CCC(C)(C)c1onc(N2C(=O)C(C)=C(OC)C2O)c1C#N (centres unmarked) [G5],5
5,COC1=C(C)C(=O)N(c2cc(C(C)(C)C#N)on2)C1O (centres unmarked) [G6],5

# Same assay, conditions: ECHCG, application pre-emergence, rate 1000 g/Ha, scale 0-5
row,Structure (SMILES),"Pre-emergence herbicidal damage score, ECHCG"
1,"COC1=C(Cl)C(OC(C)=O)N(c2cc(C(C)(C)C)on2)C1=O (centres unmarked) [E2, [1-(5-tert-butylisoxazol-3-yl)-3-chloro-4-methoxy-5-oxo-2H-pyrrol-2-yl]acetate]",4
2,COC1=C(Cl)CN(c2cc(C(C)(C)C)on2)C1=O [E3],3
3,COC1=C(C)C(=O)N(c2noc(C(C)C)c2C#N)C1O (centres unmarked) [G4],5
4,CCC(C)(C)c1onc(N2C(=O)C(C)=C(OC)C2O)c1C#N (centres unmarked) [G5],5
5,COC1=C(C)C(=O)N(c2cc(C(C)(C)C#N)on2)C1O (centres unmarked) [G6],4

# Same assay, conditions: SETFA, application pre-emergence, rate 1000 g/Ha, scale 0-5
row,Structure (SMILES),"Pre-emergence herbicidal damage score, SETFA"
1,"COC1=C(Cl)C(OC(C)=O)N(c2cc(C(C)(C)C)on2)C1=O (centres unmarked) [E2, [1-(5-tert-butylisoxazol-3-yl)-3-chloro-4-methoxy-5-oxo-2H-pyrrol-2-yl]acetate]",3
2,COC1=C(Cl)CN(c2cc(C(C)(C)C)on2)C1=O [E3],3
3,COC1=C(C)C(=O)N(c2noc(C(C)C)c2C#N)C1O (centres unmarked) [G4],5
4,CCC(C)(C)c1onc(N2C(=O)C(C)=C(OC)C2O)c1C#N (centres unmarked) [G5],5
5,COC1=C(C)C(=O)N(c2cc(C(C)(C)C#N)on2)C1O (centres unmarked) [G6],5

# Same assay, conditions: ZEAMX, application pre-emergence, rate 1000 g/Ha, scale 0-5
row,Structure (SMILES),"Pre-emergence herbicidal damage score, ZEAMX"
1,"COC1=C(Cl)C(OC(C)=O)N(c2cc(C(C)(C)C)on2)C1=O (centres unmarked) [E2, [1-(5-tert-butylisoxazol-3-yl)-3-chloro-4-methoxy-5-oxo-2H-pyrrol-2-yl]acetate]",1
2,COC1=C(Cl)CN(c2cc(C(C)(C)C)on2)C1=O [E3],1
3,COC1=C(C)C(=O)N(c2noc(C(C)C)c2C#N)C1O (centres unmarked) [G4],2
4,CCC(C)(C)c1onc(N2C(=O)C(C)=C(OC)C2O)c1C#N (centres unmarked) [G5],2
5,COC1=C(C)C(=O)N(c2cc(C(C)(C)C#N)on2)C1O (centres unmarked) [G6],4

# System: not given
# Assay: not given
# Details: not given
row,Structure (SMILES),melting point [°C]
1,"COC1=C(Cl)C(OC(C)=O)N(c2cc(C(C)(C)C)on2)C1=O (centres unmarked) [E2, [1-(5-tert-butylisoxazol-3-yl)-3-chloro-4-methoxy-5-oxo-2H-pyrrol-2-yl]acetate]",101 to 107
2,COC1=C(Cl)CN(c2cc(C(C)(C)C)on2)C1=O [E3],94 to 106
3,COC1=C(C)C(=O)N(c2noc(C(C)C)c2C#N)C1O (centres unmarked) [G4],133 to 135
4,CCC(C)(C)c1onc(N2C(=O)C(C)=C(OC)C2O)c1C#N (centres unmarked) [G5],122 to 124
5,COC1=C(C)C(=O)N(c2cc(C(C)(C)C#N)on2)C1O (centres unmarked) [G6],121 to 123
